In ChEMBL document CHEMBL4420066, “Aryl amine substituted quinoxaline used as anticancer drugs” (2017):
Active and inactive are the calls of the source. The calls are words filed in the database; no cut-off is given here.

Key:
[1] = Inhibition of CIP2A protein expression in human PLC5 cells assessed as CIP2A protein expression ratio level at 1 uM by Western blotting analysis (Rvb =1); type: functional
HA22T cell line [2] = experiment: Inhibition of PP2A-B5 protein expression in human HA22T cells at 1 uM incubated for 24 hrs by Western blotting analysis; type: functional, cell-based
SK-HEP1 [3] = experiment: Inhibition of CIP2A protein expression in human SKHEP1 cells by Western blotting analysis; type: functional, cell-based
Homo sapiens [4] = species: Homo sapiens; experiment: Inhibition of human CIP2A gene promoter in human PLC5 cells with ectopic overexpression of GFP-tagged Elk-1 assessed as inhibition of ELK1 protein expression at 2 uM by Western blotting analysis; type: cell-based
Hep 3B2 [5] = experiment: Inhibition of CIP2A protein expression in human Hep3B cells assessed as CIP2A protein expression ratio level at 2 uM by Western blotting analysis (Rvb =1); type: functional
Homo sapiens [6] = experiment: Antitumor activity against human PLC5 cells xenografted in mouse assessed as reduction in tumor size at 10 mg/kg dosed for 4 weeks; type: functional, organism-based
SK-HEP1 [7] = experiment: Inhibition of CIP2A protein expression in human SKHEP1 cells assessed as CIP2A protein expression ratio level at 0.5 uM by Western blotting analysis (Rvb =1); type: functional
Homo sapiens [8] = species: Homo sapiens; experiment: Induction of apoptosis in human PLC5 cells assessed as induction of PARP cleavage at 2 uM in presence of caspase inhibitor Z-VAD-fmk incubated for 48 hrs by Western blotting analysis; type: functional, cell-based
Homo sapiens [9] = species: Homo sapiens; experiment: Inhibition of PP2A-B5 protein expression in human PLC5 cells at 1 uM incubated for 24 hrs by Western blotting analysis; type: functional, cell-based
Hep 3B2 [10] = experiment: Induction of apoptosis in human Hep3B cells assessed as induction of DNA fragmentation at 1 uM incubated for 24 hrs by ELISA; type: functional, cell-based
HA22T cell line [11] = experiment: Induction of apoptosis in human HA22T cells assessed as caspase-9 activation at 0.5 to 4 uM incubated for 48 hrs by Western blotting analysis; type: functional, cell-based
[12] = Inhibition of CIP2A protein expression in human PLC5 cells assessed as CIP2A protein expression ratio level at 4 uM by Western blotting analysis (Rvb =1); type: functional
Homo sapiens [13] = species: Homo sapiens; experiment: Cytotoxicity against human PLC5 cells assessed as reduction in cell viability at 0.5 to 4 uM incubated for 48 hrs by MTT assay; type: functional, cell-based
Hep 3B2 [14] = experiment: Inhibition of CIP2A protein expression in human Hep3B cells assessed as CIP2A protein expression ratio level at 1 uM by Western blotting analysis (Rvb =1); type: functional
[15] = Induction of apoptosis in human PLC5 cells >= 2 uM incubated for 48 hrs by annexin-V-FITC staining based by flow cytometry relative to control; type: functional
Hep 3B2 [16] = experiment: Induction of apoptosis in human Hep3B cells assessed as induction of PARP cleavage at 2 uM in presence of caspase inhibitor Z-VAD-fmk incubated for 48 hrs by Western blotting analysis; type: functional, cell-based
Homo sapiens [17] = species: Homo sapiens; experiment: Inhibition of CIP2A protein expression in human PLC5 cells at 2 uM by Western blotting analysis; type: functional, cell-based
Hep 3B2 [18] = experiment: Inhibition of CIP2A protein expression in human Hep3B cells assessed as CIP2A protein expression ratio level at 0.5 uM by Western blotting analysis (Rvb =1); type: functional
Hep 3B2 [19] = experiment: Induction of apoptosis in human Hep3B cells assessed as accumulation at subG1 phase at 0.5 to 4 uM by flow cytometry; type: functional, cell-based
Homo sapiens [20] = species: Homo sapiens; experiment: Induction of necrosis in human PLC5cells >= 2 uM incubated for 48 hrs by annexin-V-FITC staining based by flow cytometry relative to control; type: functional
HA22T cell line [21] = experiment: Induction of necrosis in human HA22T cells >= 2 uM incubated for 48 hrs by annexin-V-FITC staining based by flow cytometry relative to control; type: functional
Hep 3B2 [22] = experiment: Induction of apoptosis in human Hep3B cells at 2 uM in presence of caspase inhibitor Z-VAD-fmk incubated for 48 hrs by annexin-V-FITC staining based by flow cytometry; type: functional, cell-based
[23] = target: Serine/threonine-protein kinase AKT (Homo sapiens) (UniProt P31751+Q9Y243+P31749); experiment: Inhibition of Akt phosphorylation at S473 residue in human SKHEP1 cells by Western blotting analysis; type: cell-based
Chain of Serine/threonine-protein kinase AKT (Homo sapiens) (P31749 whole entry, looked up): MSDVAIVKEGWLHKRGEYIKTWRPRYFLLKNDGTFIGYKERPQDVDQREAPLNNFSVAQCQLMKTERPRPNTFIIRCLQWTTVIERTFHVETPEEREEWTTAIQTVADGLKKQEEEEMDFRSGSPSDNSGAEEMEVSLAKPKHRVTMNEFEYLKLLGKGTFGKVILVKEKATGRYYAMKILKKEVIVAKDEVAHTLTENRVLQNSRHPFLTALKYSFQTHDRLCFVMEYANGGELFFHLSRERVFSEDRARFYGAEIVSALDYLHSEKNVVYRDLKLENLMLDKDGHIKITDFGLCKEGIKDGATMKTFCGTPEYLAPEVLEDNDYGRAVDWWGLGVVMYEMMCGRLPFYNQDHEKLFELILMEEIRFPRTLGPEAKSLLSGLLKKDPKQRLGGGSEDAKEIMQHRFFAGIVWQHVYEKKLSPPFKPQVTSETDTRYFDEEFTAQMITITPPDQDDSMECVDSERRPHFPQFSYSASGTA
Chain of Serine/threonine-protein kinase AKT (Homo sapiens) (P31751 whole entry, looked up): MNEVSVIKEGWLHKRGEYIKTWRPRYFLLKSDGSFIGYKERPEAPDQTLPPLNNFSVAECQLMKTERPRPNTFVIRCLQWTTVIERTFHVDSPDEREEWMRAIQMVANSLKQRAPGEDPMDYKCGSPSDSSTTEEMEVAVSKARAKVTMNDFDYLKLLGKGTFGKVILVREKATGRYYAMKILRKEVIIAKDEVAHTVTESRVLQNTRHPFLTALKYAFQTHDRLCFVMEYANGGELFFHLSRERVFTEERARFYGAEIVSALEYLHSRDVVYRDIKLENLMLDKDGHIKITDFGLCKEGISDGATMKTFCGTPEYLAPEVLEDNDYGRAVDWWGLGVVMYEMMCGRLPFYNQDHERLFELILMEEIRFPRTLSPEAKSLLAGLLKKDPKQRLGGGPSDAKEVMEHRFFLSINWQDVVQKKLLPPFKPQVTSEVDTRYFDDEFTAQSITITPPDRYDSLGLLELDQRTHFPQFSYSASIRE
Chain of Serine/threonine-protein kinase AKT (Homo sapiens) (Q9Y243 whole entry, looked up): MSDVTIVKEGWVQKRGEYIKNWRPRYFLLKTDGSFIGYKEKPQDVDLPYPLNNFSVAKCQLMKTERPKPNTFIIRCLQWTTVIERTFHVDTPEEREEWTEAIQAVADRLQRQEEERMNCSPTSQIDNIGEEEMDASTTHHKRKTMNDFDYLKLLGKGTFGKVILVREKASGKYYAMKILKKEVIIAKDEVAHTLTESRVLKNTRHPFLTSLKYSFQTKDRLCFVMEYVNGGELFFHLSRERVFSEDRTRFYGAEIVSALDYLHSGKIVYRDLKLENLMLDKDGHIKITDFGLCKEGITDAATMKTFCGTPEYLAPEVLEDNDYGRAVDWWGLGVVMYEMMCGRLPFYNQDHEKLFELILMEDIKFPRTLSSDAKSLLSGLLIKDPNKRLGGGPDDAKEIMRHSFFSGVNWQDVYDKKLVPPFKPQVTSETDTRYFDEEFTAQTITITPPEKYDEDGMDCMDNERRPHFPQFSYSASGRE

Homo sapiens [24] = species: Homo sapiens; experiment: Induction of apoptosis in human PLC5 cells at 2 uM in presence of caspase inhibitor Z-VAD-fmk incubated for 48 hrs by annexin-V-FITC staining based by flow cytometry; type: functional, cell-based
Hep 3B2 [25] = experiment: Induction of necrosis in human Hep3B cells >= 2 uM incubated for 48 hrs by annexin-V-FITC staining based by flow cytometry relative to control; type: functional
HA22T cell line [26] = experiment: Inhibition of CIP2A protein expression in human HA22T cells at 1 uM by Western blotting analysis; type: functional, cell-based; settings: TDE = time-dependent effect
Homo sapiens [27] = species: Homo sapiens; experiment: Induction of apoptosis in human PLC5 cells assessed as induction of PARP cleavage at 0.5 to 4 uM incubated for 48 hrs by Western blotting analysis; type: functional, cell-based
Homo sapiens [28] = species: Homo sapiens; experiment: Inhibition of PP2A-A protein expression in human PLC5 cells at 1 uM incubated for 24 hrs by Western blotting analysis; type: functional, cell-based
HA22T cell line [29] = experiment: Inhibition of CIP2A protein expression in human HA22T cells by Western blotting analysis; type: functional, cell-based
Homo sapiens [30] = species: Homo sapiens; experiment: Activation of PP2A in human HA22T cells assessed as minimal concentration causing increase in protein phosphatase activity incubated for 24 hrs using phosphopeptide substrate incubated for 10 mins by malachite green-phosphate complex assay; type: cell-based
Hep 3B2 [31] = experiment: Induction of apoptosis in human Hep3B cells assessed as induction of PARP cleavage at 0.5 to 4 uM incubated for 48 hrs by Western blotting analysis; type: functional, cell-based
Homo sapiens [32] = species: Homo sapiens; experiment: Activation of PP2A in human PLC5 cells assessed as increase in protein phosphatase activity at 1 uM incubated for 24 hrs using phosphopeptide substrate incubated for 10 mins by malachite green-phosphate complex assay; type: cell-based
HA22T cell line [33] = experiment: Inhibition of CIP2A protein expression in human HA22T cells assessed as CIP2A protein expression ratio level at 2 uM by Western blotting analysis (Rvb =1); type: functional
SK-HEP1 [34] = experiment: Induction of apoptosis in human SKHEP1 cells assessed as caspase-9 activation at 0.5 to 4 uM incubated for 48 hrs by Western blotting analysis; type: functional, cell-based
SK-HEP1 [35] = experiment: Induction of apoptosis in human SKHEP1 cells assessed as accumulation at subG1 phase at 0.5 to 4 uM by flow cytometry; type: functional, cell-based
Homo sapiens [36] = species: Homo sapiens; experiment: Induction of apoptosis in human PLC5 cells assessed as caspase-3 activation at 0.5 to 4 uM incubated for 48 hrs by Western blotting analysis; type: functional, cell-based
SK-HEP1 [37] = experiment: Inhibition of CIP2A protein expression in human SKHEP1 cells assessed as CIP2A protein expression ratio level at 4 uM by Western blotting analysis (; type: functional
HA22T cell line [38] = experiment: Inhibition of CIP2A protein expression in human HA22T cells assessed as CIP2A protein expression ratio level at 0.5 uM by Western blotting analysis (Rvb =1); type: functional
Homo sapiens [39] = species: Homo sapiens; experiment: Induction of apoptosis in human PLC5 cells with ectopic over expression of myc-tagged CIP2A at 2 uM incubated for 24 hrs by annexin-V-FITC staining based by flow cytometry; type: functional, cell-based

In the case of C#Cc1cccc(Nc2nc3ccccc3nc2Nc2cccc(C#C)c2)c1, the Ratio [1] is reported as 0.28, the inhibition (HA22T cell line [2]) is reported as “inactive” and the inhibition (SK-HEP1 [3]) is reported as “Dose-dependent effect”. The inhibition (Homo sapiens [4]) was “inactive”, the Ratio (Hep 3B2 [5]) was 0.49 and the Activity (Homo sapiens [6]) was “Active”. For the same compound, the Ratio (SK-HEP1 [7]) was 0.73, the Activity (Homo sapiens [8]) was “inactive” and the inhibition (Homo sapiens [9]) was “inactive”. For the same compound, the Activity (Hep 3B2 [10]) was “Active”, the Activity (HA22T cell line [11]) was “Dose-dependent effect” and the Ratio [12] was 0.01. The Activity (Homo sapiens [13]) was “Active”, the Ratio (Hep 3B2 [14]) was 0.57 and the Activity [15] was 50%. For the same compound, the Activity (Hep 3B2 [16]) was “inactive”, the inhibition (Homo sapiens [17]) was “inactive” and the Ratio (Hep 3B2 [18]) was 0.87. The Activity (Hep 3B2 [19]) was “Active”, the Activity (Homo sapiens [20]) was 50% and the Activity (HA22T cell line [21]) was 50%. For the same compound, the Activity (Hep 3B2 [22]) was “inactive”, the inhibition [23] was “Dose-dependent effect” and the Activity (Homo sapiens [24]) was “inactive”. For the same compound, the Activity (Hep 3B2 [25]) was 50%, the inhibition (HA22T cell line [26]) was “Tde” and the Activity (Homo sapiens [27]) was “Dose-dependent effect”. For the same compound, the inhibition (Homo sapiens [28]) was “inactive”, the inhibition (HA22T cell line [29]) was “Dose-dependent effect” and the MEC (Homo sapiens [30]) was 100 to 200 nM. The Activity (Hep 3B2 [31]) was “Dose-dependent effect”, the Activity (Homo sapiens [32]) was “Active” and the Ratio (HA22T cell line [33]) was 0.36. The Activity (SK-HEP1 [34]) was “Dose-dependent effect”, the Activity (SK-HEP1 [35]) was “Active” and the Activity (Homo sapiens [36]) was “Dose-dependent effect”. The Ratio (SK-HEP1 [37]) was 0.1, the Ratio (HA22T cell line [38]) was 0.99 and the Activity (Homo sapiens [39]) was “inactive”.
